System: MV-4-11 cells
Assay: Gene expression microarray analysis (Affymetrix PrimeView) and GSEA
Format: cell-based, human
Parameters: RFU PODN (11730768_x_at) / Fold change /veh PODN (11730768_x_at) / RFU LINC00158 (11744669_a_at) / Fold change /veh LINC00158 (11744669_a_at) / RFU DUSP10 (11751237_a_at) / Fold change /veh DUSP10 (11751237_a_at) / RFU ID3 (11757404_x_at) / Fold change /veh ID3 (11757404_x_at) / RFU PLEKHG5 (11737974_s_at) / Fold change /veh PLEKHG5 (11737974_s_at) / RFU LRRC4B (11730491_at) / Fold change /veh LRRC4B (11730491_at) / RFU GIMAP4 (11747438_a_at) / Fold change /veh GIMAP4 (11747438_a_at) / RFU KRT8 (11758183_x_at) / Fold change /veh KRT8 (11758183_x_at) / RFU CNN1 (11734310_a_at) / Fold change /veh CNN1 (11734310_a_at) / RFU VPS37D (11726825_at) / Fold change /veh VPS37D (11726825_at) / RFU C10orf10 (11716522_x_at) / Fold change /veh C10orf10 (11716522_x_at) / RFU KIR2DL2 /// KIR2DL4 /// KIR2DL5A /// KIR2DL5B /// KIR2DS1 /// KIR2DS2 /// KIR2DS3 /// KIR2DS4 /// KIR3DL3 /// KIR3DL3 /// KIR3DS1 (11738374_at) / Fold change /veh KIR2DL2 /// KIR2DL4 /// KIR2DL5A /// KIR2DL5B /// KIR2DS1 /// KIR2DS2 /// KIR2DS3 /// KIR2DS4 /// KIR3DL3 /// KIR3DL3 /// KIR3DS1 (11738374_at) / RFU C1QL1 (11718748_at) / Fold change /veh C1QL1 (11718748_at) / RFU TMPRSS4 (11747572_a_at) / Fold change /veh TMPRSS4 (11747572_a_at) / RFU HAMP (11756126_x_at) / Fold change /veh HAMP (11756126_x_at) / RFU RNFT2 (11725882_a_at) / Fold change /veh RNFT2 (11725882_a_at) / RFU NR4A2 (11747474_a_at) / Fold change /veh NR4A2 (11747474_a_at) / RFU ABCC12 (11746883_a_at) / Fold change /veh ABCC12 (11746883_a_at) / RFU TMEM136 (11760407_x_at) / Fold change /veh TMEM136 (11760407_x_at) / RFU CLDN22 /// WWC2 (11732394_at) / Fold change /veh CLDN22 /// WWC2 (11732394_at) / RFU HLA-DPB1 (11760878_x_at) / Fold change /veh HLA-DPB1 (11760878_x_at) / RFU SPINT1 (11716480_a_at) / Fold change /veh SPINT1 (11716480_a_at) / RFU GAP43 (11754022_s_at) / Fold change /veh GAP43 (11754022_s_at) / RFU A4GNT (11735810_at) / Fold change /veh A4GNT (11735810_at) / RFU PRB3 (11715151_x_at) / Fold change /veh PRB3 (11715151_x_at) / RFU TUBB4B (11761932_at) / Fold change /veh TUBB4B (11761932_at) / RFU CAPN14 (11732068_a_at) / Fold change /veh CAPN14 (11732068_a_at) / RFU TMCC2 (11721928_a_at) / Fold change /veh TMCC2 (11721928_a_at) / RFU IRGQ (11745062_a_at) / Fold change /veh IRGQ (11745062_a_at) / RFU FAM174B (11720279_a_at) / Fold change /veh FAM174B (11720279_a_at) / RFU TMPRSS4 (11748680_a_at) / Fold change /veh TMPRSS4 (11748680_a_at) / RFU FAM212B (11763350_a_at) / Fold change /veh FAM212B (11763350_a_at) / RFU PLEKHG5 (11743358_a_at) / Fold change /veh PLEKHG5 (11743358_a_at) / RFU ZSCAN30 (11745921_a_at) / Fold change /veh ZSCAN30 (11745921_a_at) / RFU CMKLR1 (11741424_a_at) / Fold change /veh CMKLR1 (11741424_a_at) / RFU LOC101060620 /// MAPK8IP1 (11723275_at) / Fold change /veh LOC101060620 /// MAPK8IP1 (11723275_at) / RFU SPTSSB (11747773_x_at) / Fold change /veh SPTSSB (11747773_x_at) / RFU PRSS12 (11739890_at) / Fold change /veh PRSS12 (11739890_at) / RFU BIN1 (11741810_x_at) / Fold change /veh BIN1 (11741810_x_at) / RFU WNT11 (11732464_a_at) / Fold change /veh WNT11 (11732464_a_at) / RFU C10orf10 (11716521_a_at) / Fold change /veh C10orf10 (11716521_a_at) / RFU C5orf56 (11738089_at) / Fold change /veh C5orf56 (11738089_at) / RFU CYB561 (11721691_x_at) / Fold change /veh CYB561 (11721691_x_at) / RFU ANKRD19P (11752326_a_at) / Fold change /veh ANKRD19P (11752326_a_at) / RFU OR2T12 /// OR2T33 /// OR2T8 (11738714_s_at) / Fold change /veh OR2T12 /// OR2T33 /// OR2T8 (11738714_s_at) / RFU VCAN (11748164_a_at) / Fold change /veh VCAN (11748164_a_at) / RFU JSRP1 (11732532_at) / Fold change /veh JSRP1 (11732532_at) / RFU KRTAP10-11 (11738290_x_at) / Fold change /veh KRTAP10-11 (11738290_x_at) / RFU MYO3A (11730013_a_at) / Fold change /veh MYO3A (11730013_a_at) / RFU EBF3 (11725865_a_at) / Fold change /veh EBF3 (11725865_a_at) / RFU CAMK2N1 (11719241_x_at) / Fold change /veh CAMK2N1 (11719241_x_at) / RFU C5orf56 (11738088_a_at) / Fold change /veh C5orf56 (11738088_a_at) / RFU OLFML3 (11715873_a_at) / Fold change /veh OLFML3 (11715873_a_at) / RFU LOC100653217 /// NTM (11731650_a_at) / Fold change /veh LOC100653217 /// NTM (11731650_a_at) / RFU MAPK11 (11762145_a_at) / Fold change /veh MAPK11 (11762145_a_at) / RFU FIZ1 (11724087_x_at) / Fold change /veh FIZ1 (11724087_x_at) / RFU OASL (11726364_x_at) / Fold change /veh OASL (11726364_x_at) / RFU SOX15 (11748057_x_at) / Fold change /veh SOX15 (11748057_x_at) / RFU CD79A (11719716_a_at) / Fold change /veh CD79A (11719716_a_at) / RFU HIST1H1D (11736915_at) / Fold change /veh HIST1H1D (11736915_at) / RFU CASKIN2 (11723855_a_at) / Fold change /veh CASKIN2 (11723855_a_at) / RFU LOC730098 (11760151_x_at) / Fold change /veh LOC730098 (11760151_x_at) / RFU OR4N2 (11742367_at) / Fold change /veh OR4N2 (11742367_at) / RFU PRRT2 (11749266_a_at) / Fold change /veh PRRT2 (11749266_a_at) / RFU SNX32 (11753110_a_at) / Fold change /veh SNX32 (11753110_a_at) / RFU CDHR5 (11726645_a_at) / Fold change /veh CDHR5 (11726645_a_at) / RFU RCAN1 (11760418_a_at) / Fold change /veh RCAN1 (11760418_a_at) / RFU FAM167A (11723789_a_at) / Fold change /veh FAM167A (11723789_a_at) / RFU FAM26E (11764081_at) / Fold change /veh FAM26E (11764081_at) / RFU ISYNA1 (11749810_s_at) / Fold change /veh ISYNA1 (11749810_s_at) / RFU ACY1 (11761880_at) / Fold change /veh ACY1 (11761880_at) / RFU 11764098_at / Fold change /veh 11764098_at / RFU SAMD14 (11745864_x_at) / Fold change /veh SAMD14 (11745864_x_at) / RFU NPB (11741838_a_at) / Fold change /veh NPB (11741838_a_at) / RFU TMPRSS6 (11731388_a_at) / Fold change /veh TMPRSS6 (11731388_a_at) / RFU KRTAP10-2 (11738614_at) / Fold change /veh KRTAP10-2 (11738614_at) / RFU ARHGAP8 /// PRR5-ARHGAP8 (11727945_x_at) / Fold change /veh ARHGAP8 /// PRR5-ARHGAP8 (11727945_x_at) / RFU KRTAP5-7 /// NADSYN1 (11734609_at) / Fold change /veh KRTAP5-7 /// NADSYN1 (11734609_at) / RFU RASL12 (11751679_a_at) / Fold change /veh RASL12 (11751679_a_at) / RFU CDKN2B (11736163_a_at) / Fold change /veh CDKN2B (11736163_a_at) / RFU PRF1 (11729649_at) / Fold change /veh PRF1 (11729649_at) / RFU, ZNF638 /// ZNF638-IT1 / Fold change vs veh, ZNF638 /// ZNF638-IT1 / RFU, PANK3 / Fold change vs veh, PANK3 / RFU, SH3YL1 / Fold change vs veh, SH3YL1 / RFU, ZEB2 / Fold change vs veh, ZEB2 / RFU, NRIP1 / Fold change vs veh, NRIP1 / RFU, PTTG1IP / Fold change vs veh, PTTG1IP / RFU, CAPN2 / Fold change vs veh, CAPN2 / RFU, MED14 / Fold change vs veh, MED14 / RFU, SNORA58 / Fold change vs veh, SNORA58 / RFU, C1orf63 / Fold change vs veh, C1orf63 / RFU, LRRFIP1 / Fold change vs veh, LRRFIP1 / RFU, NDUFAF7 / Fold change vs veh, NDUFAF7 / RFU, SLC12A2 / Fold change vs veh, SLC12A2 / RFU, IBTK / Fold change vs veh, IBTK / RFU, ESF1 / Fold change vs veh, ESF1 / Fold change vs veh, TMEM50B / RFU, TAOK1 / Fold change vs veh, TAOK1 / RFU, ACBD3 / Fold change vs veh, ACBD3 / RFU, TMA16 / Fold change vs veh, TMA16 / RFU, RWDD3 / Fold change vs veh, RWDD3 / RFU, BCAT1 / Fold change vs veh, BCAT1 / RFU, EDEM3 / Fold change vs veh, EDEM3 / RFU, TMEM33 / Fold change vs veh, TMEM33 / RFU, WDR75 / Fold change vs veh, WDR75 / RFU, AHCTF1 / Fold change vs veh, AHCTF1 / RFU, TFRC / Fold change vs veh, TFRC / RFU, ZDHHC17 / Fold change vs veh, ZDHHC17 / RFU, NOM1 / Fold change vs veh, NOM1 / RFU, ARL8B / Fold change vs veh, ARL8B / RFU, ZBTB11 / Fold change vs veh, ZBTB11 / RFU, TAMM41 / Fold change vs veh, TAMM41 / RFU, KIAA1704 /// LOC100996395 / Fold change vs veh, KIAA1704 /// LOC100996395 / RFU, ING1 / Fold change vs veh, ING1 / RFU, TRMT61B / Fold change vs veh, TRMT61B / RFU, FUBP3 / Fold change vs veh, FUBP3 / RFU, TP53 / Fold change vs veh, TP53 / RFU, TNKS2 / Fold change vs veh, TNKS2 / RFU, ZFP14 / Fold change vs veh, ZFP14 / RFU, ACTR2 / Fold change vs veh, ACTR2 / RFU, PPP3R1 / Fold change vs veh, PPP3R1 / RFU, PIK3R1 / Fold change vs veh, PIK3R1 / RFU, HNRNPA1 / Fold change vs veh, HNRNPA1 / RFU, RNF170 / Fold change vs veh, RNF170 / RFU, ZNF28 / Fold change vs veh, ZNF28 / RFU, RNGTT / Fold change vs veh, RNGTT / RFU, OGT / Fold change vs veh, OGT / RFU, BRD1 / Fold change vs veh, BRD1 / RFU, MARS / Fold change vs veh, MARS / RFU, ZNF655 / Fold change vs veh, ZNF655 / RFU, FAHD1 / Fold change vs veh, FAHD1 / RFU, BDP1 / Fold change vs veh, BDP1 / RFU, LRRCC1 / Fold change vs veh, LRRCC1 / RFU, ARID1A / Fold change vs veh, ARID1A / RFU, ZNF146 / Fold change vs veh, ZNF146 / RFU, ZNF330 / Fold change vs veh, ZNF330 / RFU, GPN3 / Fold change vs veh, GPN3 / RFU, C9orf123 / Fold change vs veh, C9orf123 / RFU, N4BP2L2 / Fold change vs veh, N4BP2L2 / RFU, ARFIP1 / Fold change vs veh, ARFIP1 / RFU, FAM179B / Fold change vs veh, FAM179B / RFU, BCL10 / Fold change vs veh, BCL10 / RFU, UHRF1BP1L / Fold change vs veh, UHRF1BP1L / RFU, BET1 / Fold change vs veh, BET1 / RFU, CNOT2 / Fold change vs veh, CNOT2 / RFU, ZNF268 / Fold change vs veh, ZNF268 / Fold change vs veh, ZNF507 / RFU, DGCR2 / Fold change vs veh, DGCR2 / RFU, WDSUB1 / Fold change vs veh, WDSUB1 / Fold change vs veh, HSP90B1 /// MIR3652 / RFU, ADSS / Fold change vs veh, ADSS / RFU, GK / Fold change vs veh, GK / RFU, ZNF148 / Fold change vs veh, ZNF148 / RFU, TAF9 / Fold change vs veh, TAF9 / RFU, SLC1A5 / Fold change vs veh, SLC1A5 / RFU, SLMO2 / Fold change vs veh, SLMO2 / RFU, ABCC4 / Fold change vs veh, ABCC4 / RFU, LOC101060439 /// RAP1B / Fold change vs veh, LOC101060439 /// RAP1B / RFU, RFX7 / Fold change vs veh, RFX7 / RFU, GTPBP10 / Fold change vs veh, GTPBP10 / RFU, CNEP1R1 / Fold change vs veh, CNEP1R1 / RFU, BIVM-ERCC5 /// ERCC5 / Fold change vs veh, BIVM-ERCC5 /// ERCC5 / RFU, ILF3 / Fold change vs veh, ILF3 / RFU 11762660_at / Fold change /veh 11762660_at / RFU VCAN (11757783_s_at) / Fold change /veh VCAN (11757783_s_at) / RFU DDX43 (11728927_at) / Fold change /veh DDX43 (11728927_at) / RFU KRT8 (11758188_x_at) / Fold change /veh KRT8 (11758188_x_at) / RFU NKD1 (11759106_at) / Fold change /veh NKD1 (11759106_at) / RFU SRD5A1 (11742802_a_at) / Fold change /veh SRD5A1 (11742802_a_at) / RFU TPSAB1 /// TPSB2 (11721975_s_at) / Fold change /veh TPSAB1 /// TPSB2 (11721975_s_at) / RFU GSTM3 (11746129_a_at) / Fold change /veh GSTM3 (11746129_a_at) / RFU IL23R (11737362_x_at) / Fold change /veh IL23R (11737362_x_at) / RFU TMEM51 (11727254_a_at) / Fold change /veh TMEM51 (11727254_a_at) / RFU PIWIL2 (11732686_x_at) / Fold change /veh PIWIL2 (11732686_x_at) / RFU ORM1 (11744905_x_at) / Fold change /veh ORM1 (11744905_x_at) / RFU CCDC152 (11743942_at) / Fold change /veh CCDC152 (11743942_at) / RFU ECM1 (11717891_a_at) / Fold change /veh ECM1 (11717891_a_at) / RFU IL23R (11748794_a_at) / Fold change /veh IL23R (11748794_a_at) / RFU TNFAIP8L3 (11732012_x_at) / Fold change /veh TNFAIP8L3 (11732012_x_at) / RFU MBOAT4 (11741988_at) / Fold change /veh MBOAT4 (11741988_at) / RFU 11764193_at / Fold change /veh 11764193_at / RFU TMEM53 (11763286_at) / Fold change /veh TMEM53 (11763286_at) / RFU MAGEB2 (11727129_at) / Fold change /veh MAGEB2 (11727129_at) / RFU TMEM200A (11744735_a_at) / Fold change /veh TMEM200A (11744735_a_at) / RFU CCDC152 (11751479_a_at) / Fold change /veh CCDC152 (11751479_a_at) / RFU FAM211A (11726209_a_at) / Fold change /veh FAM211A (11726209_a_at) / RFU RGS16 (11746705_a_at) / Fold change /veh RGS16 (11746705_a_at) / RFU VCAN (11755009_s_at) / Fold change /veh VCAN (11755009_s_at) / RFU RHOB (11743442_s_at) / Fold change /veh RHOB (11743442_s_at) / RFU RGS16 (11720943_a_at) / Fold change /veh RGS16 (11720943_a_at) / RFU RGS16 (11720944_at) / Fold change /veh RGS16 (11720944_at) / RFU, VPS4B / Fold change vs veh, VPS4B / RFU, CREB1 / Fold change vs veh, CREB1 / RFU, DNAJC13 / Fold change vs veh, DNAJC13 / RFU, GNAQ / Fold change vs veh, GNAQ / RFU, CDK5R1 / Fold change vs veh, CDK5R1 / RFU, ZRANB3 / Fold change vs veh, ZRANB3 / RFU, CUL4A / Fold change vs veh, CUL4A / RFU, CCNY / Fold change vs veh, CCNY / RFU, UFL1 / Fold change vs veh, UFL1 / RFU, COG3 / Fold change vs veh, COG3 / RFU, DIAPH2 / Fold change vs veh, DIAPH2 / RFU, SKA2 / Fold change vs veh, SKA2 / RFU, AFF3 / Fold change vs veh, AFF3 / RFU, LMF1 / Fold change vs veh, LMF1 / RFU, IPO11 / Fold change vs veh, IPO11 / RFU, DFFB / Fold change vs veh, DFFB / RFU, FOXP1 / Fold change vs veh, FOXP1 / RFU, CARD8 / Fold change vs veh, CARD8 / RFU, STRN3 / Fold change vs veh, STRN3 / RFU, ADK / Fold change vs veh, ADK / RFU, RASSF2 / Fold change vs veh, RASSF2 / RFU, WIPF1 / Fold change vs veh, WIPF1 / RFU, LARP1B / Fold change vs veh, LARP1B / RFU, RASA1 / Fold change vs veh, RASA1 / RFU, RB1 / Fold change vs veh, RB1 / RFU, PPFIA1 / Fold change vs veh, PPFIA1 / RFU, MAT2A / Fold change vs veh, MAT2A / RFU, CCT5 / Fold change vs veh, CCT5 / RFU, WDR92 / Fold change vs veh, WDR92 / RFU, CUX1 / Fold change vs veh, CUX1 / RFU, TTC7A / Fold change vs veh, TTC7A / RFU, TMEM135 / Fold change vs veh, TMEM135 / RFU, DEPTOR / Fold change vs veh, DEPTOR / RFU, CPM / Fold change vs veh, CPM / RFU, DNAJB6 / Fold change vs veh, DNAJB6 / RFU, CACNA2D3 / Fold change vs veh, CACNA2D3 / RFU, DTX4 / Fold change vs veh, DTX4 / RFU, TFCP2 / Fold change vs veh, TFCP2 / RFU, GMCL1 /// GMCL1P1 / Fold change vs veh, GMCL1 /// GMCL1P1 / RFU, AEBP2 / Fold change vs veh, AEBP2 / RFU, SNHG1 /// SNORD22 /// SNORD25 /// SNORD26 /// SNORD27 /// SNORD28 /// SNORD29 /// SNORD31 / Fold change vs veh, SNHG1 /// SNORD22 /// SNORD25 /// SNORD26 /// SNORD27 /// SNORD28 /// SNORD29 /// SNORD31 / Fold change (Aza/veh), C12orf56 (ProbeSet 11735607_a_at) / Fold change (ACY-1035/veh), C12orf56 (ProbeSet 11735607_a_at) / Fold change (Aza/veh), FGFR1OP (ProbeSet 11751329_s_at) / Fold change (ACY-1035/veh), FGFR1OP (ProbeSet 11751329_s_at) / Fold change (Aza/veh), VPS36 (ProbeSet 11739960_a_at) / Fold change (ACY-1035/veh), VPS36 (ProbeSet 11739960_a_at) / RFU SYPL1 (11715823_x_at) / Fold change /veh SYPL1 (11715823_x_at) / RFU IGFBP7 (11715501_s_at) / Fold change /veh IGFBP7 (11715501_s_at) / RFU REEP3 (11722064_at) / Fold change /veh REEP3 (11722064_at) / RFU IGLL1 (11728026_x_at) / Fold change /veh IGLL1 (11728026_x_at): dose or concentration left out as unconfirmed
Settings: MV-4-11 cells, 48 hours

Nc1ncn([C@@H]2O[C@H](CO)[C@@H](O)[C@H]2O)c(=O)n1 [azacitidine]
Fold change /veh CAMK2N1 (11719241_x_at): 0.94
